Each structure is given as a SMILES string.

Series [1] addresses SOX18 (Mus musculus (Mouse), UniProt P43680). Description: Cell-based luciferase SOX18-dependent transactivation (Vcam1 promoter) in COS-7. To be noted: COS7, 24 h. The method, then:
Monkey kidney fibroblast-like cells (COS-7) were cultured at 37° C., 5% CO2 in DMEM (Life technologies, 11995) with FBS, sodium pyruvate, L-glutamine, penicillin, streptomycin, non-essential amino acids and HEPES. Cells were grown in 96-well plates to 80% confluency, and transfected with mouse plasmids pGL2 Vcam 1 promoter construct (VC1889) and pSG5 Sox18, using X-tremeGENE 9 DNA transfection reagent (Roche, 06365787001) (Hosking et al., 2004, Duong et al., 2014). After 4-6 h transfection, cells were incubated with compounds in 0.5% FBS medium for another 24 h, before lysis and luciferase assay (Perkin Elmer, 6016711).

Series [2] concerns the target full-length mouse SOX18 (Mus musculus (Mouse), UniProt P43680). Description: FP DNA-binding competition assay, full-length SOX18. The settings on record: full-length mouse SOX18, Prox1-DNA probe, read-out: FP IC50 ± SD. The method, then: Full-length mouse SOX18. A N-terminally tagged mouse HIS-GST-SOX18 was recombinantly expressed in Sf9 cells, purified on GST resin (GE Healthcare Life Sciences, Sweden) and eluted in Tris buffer (50 mM Tris, 500 mM NaCl, 10 mM reduced glutathione, pH 8.0). cDNA clone of mouse Sox18 was PCR amplified and cloned into the pOPIN-GST vector, to generate N-terminally tagged HIS-GST-SOX18. A sequence verified construct was co-transfected with flashBACULTRA (Oxford Expression Technologies, Oxford, United Kingdom) baculovirus DNA onto Spodoptera frugiperda Sf9 cells to obtain recombinantly expressed HIS-GST-SOX18. High Five cells (BTI-TN-5B1-4) in Sf-900™ II serum-free medium were infected at cell density of 1.5×10^6 cells/mL with a multiplicity of infection (MOI) of 5 PFU/cell, and incubated at 21° C. for 144 h before harvest. The cell pellet from 100 mL of expression culture was resuspended in 30 mL of phosphate lysis buffer (50 mM sodium phosphate, 500 mM sodium chloride, 1% Triton X-100, 2 mM magnesium chloride, one tablet of cOmplete Protease Inhibitor Cocktail, pH 7.5) and sonicated on ice for 20 s. The cell lysate was centrifuged at 17,000×g for 40 min at 4° C. Supernatant was incubated with Benzonase Nuclease (Merck Millipore) for 1 h at room temperature for DNA degradation, before being mixed with 500 μL GST resin (GE Healthcare Life Sciences, Sweden) and incubated on a rotating wheel at room temperature for 1 h. The sample was centrifuged at 500×g for 1 min to remove unbound protein in the supernatant. The resin was further washed with 50 resin volumes (RV) wash buffer (50 mM sodium phosphate, 500 mM NaCl, pH 7.5), with unbound protein removed by centrifugation as above. Bound protein was eluted from the resin with 3×1 RV elution buffer (50 mM Tris, 500 mM NaCl, 10 mM reduced glutathione, pH 8.0), collecting the supernatant by centrifugation as above.
The DNA-binding competition assay was performed in black 384-well plates, with mouse full length SOX18, or SOX-HMG fragments. All experiments were performed using a fluorescently-labelled Prox1-DNA element. Controls consisted of free labelled DNA (low FP milli-Polarization index, mP), labelled DNA in presence of protein (negative control, high mP), and labelled DNA and protein in presence of competing excess of unlabelled DNA (positive control, low mP)
The DNA-binding competition assay was performed in 25 uL, in black 384-well plates, using either 30 mM HEPES (N-2-Hydroxyethylpiperazine-N′-2-Ethanesulfonic Acid) (pH 7.5, with 100 mM KCl, 40 mM NaCl, 10 mM NH4OAc, […], 2 mM MgCl2, 0.5 mM EDTA, 0.01% NP-40) for mouse full length SOX18, or Tris-NaCl (10 mM Tris pH 8.0 and 100 mM NaCl) for SOX-HMG fragments. All experiments were performed using a 40 bp double-stranded Prox1-DNA element with 5′ fluorescein amidite (FAM) label (Sigma Proligo or InVitrogen). Optimum binding levels were obtained at 200 nM of mouse full length SOX18 and 60 nM of SOX-HMG fragment, in presence of 5 nM labelled DNA. Controls consisted of free labelled DNA (low FP milli-Polarization index, mP), labelled DNA in presence of protein (negative control, high mP), and labelled DNA and protein in presence of 400 time competing excess of unlabelled DNA (positive control, low mP). Depending on compound, final DMSO concentrations ranged from 2 to 3.33% v/v. After mixing protein, DNA probe and compound, plates were sealed and briskly agitated in the dark for 5 minutes at room temperature, 10 minutes at 37° C., and 30 minutes at room temperature, before reading fluorescence polarization on a Tecan M1000Pro (λexc=485 nm, λem=525 nm). All experiments were performed in triplicates.

A short description of series [3]: Cytotoxicity assay (Alamar blue), HEK293. The settings on record: human, HEK293 cells; HEK293, 24 h. The series is classed as cell-based. In short, it runs like this: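 COS-7 cells in DMEM with 10% FBS; HepG2 and HEK293 in DMEM with 1% FBS. After 24 h plating, serial compound dilutions (0.5% DMSO final) added for 24 h at 37° C. Viability from Alamar blue 5 μM, fluorescence 560/590 nm read after 2 h.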
A general note: The colour change of resazurin is a common sign of viable cells or microbes.

Series [4] in a line: Cytotoxicity assay (Alamar blue), HepG2. The series is classed as cell-based. To be noted: human, HepG2 cells; HepG2, 24 h.
Series [5] concerns the target mouse SOX18-HMG (109aa) (Mus musculus (Mouse), UniProt P43680). Description: Direct protein binding assay (thermal aggregation, static light scattering). The settings on record: 500 μM for Sm4 and Sm14, 1.5 mM for Sm5.

Chain of full-length mouse SOX18 (P43680 whole entry): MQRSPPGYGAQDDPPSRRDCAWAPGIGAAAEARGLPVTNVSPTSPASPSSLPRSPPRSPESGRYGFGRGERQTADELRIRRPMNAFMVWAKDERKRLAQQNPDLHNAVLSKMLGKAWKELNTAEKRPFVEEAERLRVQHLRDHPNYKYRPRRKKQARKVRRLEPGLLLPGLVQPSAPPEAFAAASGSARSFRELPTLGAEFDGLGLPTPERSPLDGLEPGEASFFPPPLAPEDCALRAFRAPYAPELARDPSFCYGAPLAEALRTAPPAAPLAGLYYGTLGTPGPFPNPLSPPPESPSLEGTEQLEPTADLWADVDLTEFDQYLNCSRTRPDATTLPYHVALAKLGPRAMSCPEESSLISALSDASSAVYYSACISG
Chain of SOX18 (P43680 whole entry): as above
Chain of mouse SOX18-HMG (109aa) (P43680 69-177): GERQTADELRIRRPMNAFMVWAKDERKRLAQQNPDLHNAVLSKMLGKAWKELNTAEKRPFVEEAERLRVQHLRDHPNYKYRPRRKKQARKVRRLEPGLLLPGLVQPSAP

The IC50 is the midpoint of a concentration-inhibition curve. Take `O=C(O)c1ccccc1Nc1cccc(C(F)(F)F)c1` [Flufenamic acid, reference compound]: the “In vitro efficacy in cell IC50 ± SD COS7 (Luc)” value in series [1] is “cytotoxicity was reached before any concentration-dependent SOX18 inhibition could be observed”. The IC50 in series [2] is 220 ± 68.6 µM.
Usually CC50 stands for the concentration at which the toxic effect on the cells reaches its halfway point. As to `Oc1cc(CCc2ccccc2)cc(O)c1O` [Sm40, 5-phenethylbenzene-1,2,3-triol], the CC50 at 24 h in series [3] and in series [4] was more than 100 µM in each case.
On to `O=C(O)c1c(O)cccc1COCCc1ccccc1` [Sm5], for which the IC50 is 21 ± 14 µM in series [1] (read-out: In vitro efficacy in cell IC50 ± SD COS7 (Luc)) and 1100 µM in series [2]. Besides, the “increase in Tagg” value in series [5] was “more than 3 °C”.
Regarding `COc1cc(C)cc(/C=C/c2ccc3ccccc3c2)c1C(=O)O` [Sm34, (E)-2-methoxy-4-methyl-6-(2-(naphthalen-2-yl)vinyl)benzoic acid], the CC50 at 24 h in series [3] and in series [4] was more than 100 µM in each case.

The values are drawn from patent publication US20240002326A1, “COMPOUNDS AND USE THEREOF IN METHODS OF TREATMENT” (The University of Queensland, priority 2016, published 2024).
